Values of other authors as cited in patent US6951877B2, “Materials and methods for treating hypercholesterolemia” (ARYx Therapeutics, Inc., priority 2002, dated 2005).
Where two headings read alike, the source gives them in different places.

Legend:
[1] = test system: asymptomatic, middle-aged men with primary hypercholesterolemia
patients [2] = test system: patients
patients [3] = test system: patients; remark: listed apart in the source

Cc1ccc(C)c(OCCCC(C)(C)C(=O)O)c1 [gemfibrozil]
reduction in CHD risk ([1]; over the 5-year follow-up period): 34% | HDL cholesterol ([1]; treatment with gemfibrozil): increased HDL cholesterol | LDL cholesterol ([1]; treatment with gemfibrozil): lowered LDL, cholesterol

COCc1c(C(C)C)nc(C(C)C)c(/C=C/[C@@H](O)C[C@@H](O)CC(=O)O)c1-c1ccc(F)cc1 [cerivastatin]
U.S. deaths due to severe rhabdomyolysis reported to FDA (patients [2]; all reports associated with use of cerivastatin): 31 | U.S. deaths due to severe rhabdomyolysis reported to FDA (patients [2]; concomitant gemfibrozil use): 12

CC(C)c1c(C(=O)Nc2ccccc2)c(-c2ccccc2)c(-c2ccc(F)cc2)n1CC[C@@H](O)C[C@@H](O)CC(=O)O [atorvastatin]
patients with elevated liver enzymes (patients [3]; 40 mg): 0.6% | patients with elevated liver enzymes (patients [3]; 80 mg): 2.3% | patients with elevated liver enzymes (patients [3]; doses of 10 or 20 mg): 0.2%
